Tests used:
Parameters in all cases: dose 10 mg/kg, route intraperitoneal
[1] = Biodistribution in mouse Cloudman S91 tumor bearing DBA2 mouse spleen at 10 mg/kg, ip after 12 hrs; assay type: ADME, organism-based; details: read-out: Drug uptake
[2] = Biodistribution in mouse Cloudman S91 tumor bearing DBA2 mouse liver at 10 mg/kg, ip after 12 hrs; assay type: ADME, organism-based; details: read-out: Drug uptake
[3] = Biodistribution in mouse Cloudman S91 tumor bearing DBA2 mouse kidneys at 10 mg/kg, ip after 12 hrs; assay type: ADME, organism-based; details: kidney, read-out: Drug uptake
[4] = Biodistribution in mouse Cloudman S91 tumor bearing DBA2 mouse intestine at 10 mg/kg, ip after 12 hrs; assay type: ADME, organism-based; details: read-out: Drug uptake
[5] = Biodistribution in mouse Cloudman S91 tumor bearing DBA2 mouse heart at 10 mg/kg, ip after 12 hrs; assay type: ADME, organism-based; details: read-out: Drug uptake
[6] = Biodistribution in mouse Cloudman S91 tumor bearing DBA2 mouse lungs at 10 mg/kg, ip after 12 hrs; assay type: ADME, organism-based; details: lung, read-out: Drug uptake
[7] = Biodistribution in mouse Cloudman S91 tumor bearing DBA2 mouse blood at 10 mg/kg, ip after 24 hrs; assay type: ADME, organism-based; details: read-out: Drug uptake
[8] = Biodistribution in mouse Cloudman S91 tumor bearing DBA2 mouse tumour at 10 mg/kg, ip after 24 hrs; assay type: ADME, organism-based, Neoplasm; details: read-out: Drug uptake
[9] = Biodistribution in mouse Cloudman S91 tumor bearing DBA2 mouse skin at 10 mg/kg, ip after 24 hrs; assay type: ADME, organism-based, Zone of skin; details: read-out: Drug uptake
[10] = Biodistribution in mouse Cloudman S91 tumor bearing DBA2 mouse muscle at 10 mg/kg, ip after 24 hrs; assay type: ADME, organism-based, Muscle tissue; details: read-out: Drug uptake
[11] = Biodistribution in mouse Cloudman S91 tumor bearing DBA2 mouse muscle at 10 mg/kg, ip after 12 hrs; assay type: ADME, organism-based, Muscle tissue; details: read-out: Drug uptake
[12] = Biodistribution in mouse Cloudman S91 tumor bearing DBA2 mouse spleen at 10 mg/kg, ip after 24 hrs; assay type: ADME, organism-based; details: read-out: Drug uptake
[13] = Biodistribution in mouse Cloudman S91 tumor bearing DBA2 mouse liver at 10 mg/kg, ip after 24 hrs; assay type: ADME, organism-based; details: read-out: Drug uptake
[14] = Biodistribution in mouse Cloudman S91 tumor bearing DBA2 mouse kidneys at 10 mg/kg, ip after 24 hrs; assay type: ADME, organism-based; details: kidney, read-out: Drug uptake
[15] = Biodistribution in mouse Cloudman S91 tumor bearing DBA2 mouse intestine at 10 mg/kg, ip after 24 hrs; assay type: ADME, organism-based; details: read-out: Drug uptake
[16] = Biodistribution in mouse Cloudman S91 tumor bearing DBA2 mouse heart at 10 mg/kg, ip after 24 hrs; assay type: ADME, organism-based; details: read-out: Drug uptake
[17] = Biodistribution in mouse Cloudman S91 tumor bearing DBA2 mouse lungs at 10 mg/kg, ip after 24 hrs; assay type: ADME, organism-based; details: lung, read-out: Drug uptake
[18] = Biodistribution in mouse Cloudman S91 tumor bearing DBA2 mouse blood at 10 mg/kg, ip after 48 hrs; assay type: ADME, organism-based; details: read-out: Drug uptake
[19] = Biodistribution in mouse Cloudman S91 tumor bearing DBA2 mouse tumour at 10 mg/kg, ip after 48 hrs; assay type: ADME, organism-based, Neoplasm; details: read-out: Drug uptake
[20] = Biodistribution in mouse Cloudman S91 tumor bearing DBA2 mouse skin at 10 mg/kg, ip after 48 hrs; assay type: ADME, organism-based, Zone of skin; details: read-out: Drug uptake
[21] = Biodistribution in mouse Cloudman S91 tumor bearing DBA2 mouse muscle at 10 mg/kg, ip after 48 hrs; assay type: ADME, organism-based, Muscle tissue; details: read-out: Drug uptake
[22] = Biodistribution in mouse Cloudman S91 tumor bearing DBA2 mouse spleen at 10 mg/kg, ip after 48 hrs; assay type: ADME, organism-based; details: read-out: Drug uptake
[23] = Biodistribution in mouse Cloudman S91 tumor bearing DBA2 mouse liver at 10 mg/kg, ip after 48 hrs; assay type: ADME, organism-based; details: read-out: Drug uptake
[24] = Biodistribution in mouse Cloudman S91 tumor bearing DBA2 mouse kidneys at 10 mg/kg, ip after 48 hrs; assay type: ADME, organism-based; details: kidney, read-out: Drug uptake
[25] = Biodistribution in mouse Cloudman S91 tumor bearing DBA2 mouse intestine at 10 mg/kg, ip after 48 hrs; assay type: ADME, organism-based; details: read-out: Drug uptake
[26] = Biodistribution in mouse Cloudman S91 tumor bearing DBA2 mouse heart at 10 mg/kg, ip after 48 hrs; assay type: ADME, organism-based; details: read-out: Drug uptake
[27] = Biodistribution in mouse Cloudman S91 tumor bearing DBA2 mouse lungs at 10 mg/kg, ip after 48 hrs; assay type: ADME, organism-based; details: lung, read-out: Drug uptake
[28] = Biodistribution in mouse Cloudman S91 tumor bearing DBA2 mouse blood at 10 mg/kg, ip after 72 hrs; assay type: ADME, organism-based; details: read-out: Drug uptake
[29] = Biodistribution in mouse Cloudman S91 tumor bearing DBA2 mouse tumour at 10 mg/kg, ip after 72 hrs; assay type: ADME, organism-based, Neoplasm; details: read-out: Drug uptake
[30] = Biodistribution in mouse Cloudman S91 tumor bearing DBA2 mouse skin at 10 mg/kg, ip after 72 hrs; assay type: ADME, organism-based, Zone of skin; details: read-out: Drug uptake
[31] = Biodistribution in mouse Cloudman S91 tumor bearing DBA2 mouse muscle at 10 mg/kg, ip after 72 hrs; assay type: ADME, organism-based, Muscle tissue; details: read-out: Drug uptake
[32] = Biodistribution in mouse Cloudman S91 tumor bearing DBA2 mouse spleen at 10 mg/kg, ip after 72 hrs; assay type: ADME, organism-based; details: read-out: Drug uptake
[33] = Biodistribution in mouse Cloudman S91 tumor bearing DBA2 mouse liver at 10 mg/kg, ip after 72 hrs; assay type: ADME, organism-based; details: read-out: Drug uptake
[34] = Biodistribution in mouse Cloudman S91 tumor bearing DBA2 mouse kidneys at 10 mg/kg, ip after 72 hrs; assay type: ADME, organism-based; details: kidney, read-out: Drug uptake
[35] = Biodistribution in mouse Cloudman S91 tumor bearing DBA2 mouse intestine at 10 mg/kg, ip after 72 hrs; assay type: ADME, organism-based; details: read-out: Drug uptake
[36] = Biodistribution in mouse Cloudman S91 tumor bearing DBA2 mouse heart at 10 mg/kg, ip after 72 hrs; assay type: ADME, organism-based; details: read-out: Drug uptake
[37] = Biodistribution in mouse Cloudman S91 tumor bearing DBA2 mouse lungs at 10 mg/kg, ip after 72 hrs; assay type: ADME, organism-based; details: lung, read-out: Drug uptake

Which results are given for `CCNS(=O)(=O)c1ccc(Cl)c(-c2c3nc(c(-c4c(Cl)ccc(S(=O)(=O)NCC)c4Cl)c4ccc([nH]4)c(-c4c(Cl)ccc(S(=O)(=O)NCC)c4Cl)c4nc(c(-c5c(Cl)ccc(S(=O)(=O)NCC)c5Cl)c5ccc2[nH]5)CC4)CC3)c1Cl`?
concentration at 12 h [1]: 6100 ng/g; concentration at 12 h [2]: 4000 ng/g; concentration at 12 h [3]: 300 ng/g; concentration at 12 h [4]: 1200 ng/g; concentration at 12 h [5]: 200 ng/g; concentration at 12 h [6]: 300 ng/g; concentration at 24 h [7]: 230 ng/g; concentration at 24 h [8]: 960 ng/g; concentration at 24 h [9]: 170 ng/g; concentration at 24 h [10]: 130 ng/g; concentration at 12 h [11]: 120 ng/g; concentration at 24 h [12]: 10000 ng/g; concentration at 24 h [13]: 2000 ng/g; concentration at 24 h [14]: 500 ng/g; concentration at 24 h [15]: 750 ng/g; concentration at 24 h [16]: 800 ng/g; concentration at 24 h [17]: 850 ng/g; concentration at 48 h [18]: 130 ng/g; concentration at 48 h [19]: 320 ng/g; concentration at 48 h [20]: 80 ng/g; concentration at 48 h [21]: 70 ng/g; concentration at 48 h [22]: 7300 ng/g; concentration at 48 h [23]: 2400 ng/g; concentration at 48 h [24]: 400 ng/g; concentration at 48 h [25]: 900 ng/g; concentration at 48 h [26]: 300 ng/g; concentration at 48 h [27]: 500 ng/g; concentration at 72 h [28]: 50 ng/g; concentration at 72 h [29]: 150 ng/g; concentration at 72 h [30]: 19 ng/g; concentration at 72 h [31]: 15 ng/g; concentration at 72 h [32]: 3000 ng/g; concentration at 72 h [33]: 630 ng/g; concentration at 72 h [34]: 200 ng/g; concentration at 72 h [35]: 300 ng/g; concentration at 72 h [36]: 200 ng/g; concentration at 72 h [37]: 300 ng/g

Source: ChEMBL document CHEMBL3217712, “Improved biodistribution, pharmacokinetics and photodynamic efficacy using a new photostable sulfonamide bacteriochlorin” (Medchemcomm, 2012)
